From PMC7310518 (Nature chemical biology, 2017) come the findings set out here.

The target in test [1] is T1, AaBioW (pimeloyl-CoA synthetase BioW) (Aquifex aeolicus, UniProt O67575). In words: ITC. Format: binding.
The target of test [2] is T1, AaBioW (pimeloyl-CoA synthetase BioW). In words: co-crystal structure with CoA. It is filed as binding.
For test [3] the target is unchanged. As to the kind of experiment: TLC proofreading assay. It is filed as biochemical.
Test [4] has the same target. In words: ITC. Format: binding. This is another data set of the same source.
For test [5] the target is unchanged. As to the kind of experiment: TLC adenylation/proofreading assay. Format: biochemical.

The structures appear in SMILES notation. Read-outs that look alike come from different tables or passages of the source.

T1 sequence (O67575 whole entry): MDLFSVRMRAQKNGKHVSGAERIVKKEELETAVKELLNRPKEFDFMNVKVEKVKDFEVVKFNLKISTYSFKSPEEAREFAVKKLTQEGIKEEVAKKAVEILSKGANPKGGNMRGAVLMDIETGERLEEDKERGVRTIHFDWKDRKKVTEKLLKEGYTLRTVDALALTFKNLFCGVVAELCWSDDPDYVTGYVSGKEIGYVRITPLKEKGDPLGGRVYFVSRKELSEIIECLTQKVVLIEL

As usually defined, the Kd is the constant that tells how readily two partners part at equilibrium. A low value points to tighter binding. Regarding `CC(C)(COP(=O)(O)OP(=O)(O)OC[C@H]1O[C@@H](n2cnc3c(N)ncnc32)[C@H](O)[C@@H]1OP(=O)(O)O)[C@@H](O)C(=O)NCCC(=O)NCCS` [CoA], in test [1], the Kd was 14 ± 2.5 µM. For `Nc1ncnc2c1ncn2[C@@H]1O[C@H](COP(=O)(O)O)[C@@H](O)[C@H]1O` [AMP], the “co-crystal structure with CoA (2.25 Å)” value in test [2] is on record as “AaBioW with CoA–AMP (5TVA)”. Turning to `O=C(O)CCCC(=O)O` [compound 3, glutarate], the “TLC proofreading assay (AMP accumulation)” value in test [3] is “reactions carried out using glutarate in the absence of CoA resulted only in the accumulation of AMP”. The compound `Nc1ncnc2c1ncn2[C@@H]1O[C@H](COP(=O)(O)OP(=O)(O)OP(=O)(O)O)[C@@H](O)[C@H]1O` [ATP] gave a Kd in test [4] of 13 ± 3 µM.

With `O=C(O)CCCCCCC(=O)O` [compound 5, suberate], the TLC adenylation/proofreading assay result in test [5] was “adenylated intermediates can be observed for the cognate C7, as well as for the noncognate C6 and C8 substrates”. Take `O=C(O)CCCCC(=O)O` [compound 4, adipate]: the TLC adenylation/proofreading assay entry in test [5] was “adenylated intermediates can be observed for the cognate C7, as well as for the noncognate C6 and C8 substrates”.
